Legend:
Type in all cases: in vivo
[1] = tested on: Lolium perenne L. (LOLPE); experiment: Glasshouse herbicide efficacy of imazethapyrammonium with adjuvants, fresh weight after 14 days; settings: imazethapyrammonium 4.0 g ae/ha, adjuvant where named 0.25% w/v, plants in 2-3-leaf stage, untreated 13.97 g
Protocol: (§1) Test formulations are prepared by adjusting an aqueous solution of imazethapyrammonium to a concentration of 5 mmol. The adjuvants are added to this solution in an amount corresponding to a concentration of 0.25% w/v (2.5 g/l). These test solutions are applied in various concentrations (concentration stated g ae/ha, where ae means acidic equivalent) to the plant species Solanum Nigrum L. (SOLNI) and Lolium perenne L. (LOLPE) while they are in the 2-3-leaf stage in a glasshouse as shown in the following table.
(§2) After 14 days, the efficacy of the herbicidal formulation is assessed by weighing the plant parts still present (fresh weight).

[2] = tested on: Solanum Nigrum L. (SOLNI); experiment: as above; settings: imazethapyrammonium 4.0 g ae/ha, adjuvant where named 0.25% w/v, plants in 2-3-leaf stage, untreated 15.42 g
Protocol: as §1, §2

Avena fatura L. (AVEFA) = experiment: Glasshouse herbicide efficacy of clodinafop propargyl (Topic 240) with adjuvants, fresh weight after 21 days; settings: clodinafop propargyl 5 g a.i./ha (Topic 240 in water), adjuvant where named 0.25% w/v, plants in 2-3-leaf stage, untreated 17.48 g
Protocol: Test formulations are prepared by mixing the commercially available formulation Topic 240, which contains 240 g of clodinafop propargyl per liter of formulation, as stated by the manufacturer (Syngenta), with water. The adjuvants are added to this emulsion in an amount corresponding to a concentration of 0.25% w/v (2.5 g/l). These test solutions are applied in various concentrations (concentration stated in g a.i/ha, where a.i. means active ingredient) to the plant species Avena fatura L. (AVEFA) while they are in the 2-3-leaf stage in a glasshouse as shown in the following table.
After 21 days, the efficacy of the herbicidal formulation is assessed by weighing the plant parts which are still present (fresh weight).

Structure (SMILES)	fresh weight [g] LOLPE [1]	fresh weight [g] SOLNI [2]	fresh weight [g] AVEFA (Avena fatura L. (AVEFA))
CCc1cnc(C2=NC(C)(C(C)C)C(=O)N2)c(C(=O)O)c1.N (stereo not drawn) [Imazethapyrammonium, imazethapyrammonium]	13.40 g	10.61 g	–
C#CCOC(=O)[C@@H](C)Oc1ccc(Oc2ncc(Cl)cc2F)cc1 [Clodinafop propargyl, clodinafop propargyl]	–	–	15.69 g

From patent US20070275854A1, “Agrochemical Composition Containing Phosphoric Acid Ester” (priority 2004, published 2007)
